Assay results published in publication PMC3927474, “Whole body synthesis rates of DHA from α-linolenic acid are greater than brain DHA accretion and uptake rates in adult rats” (Journal of Lipid Research, 2014).

Columns and labels:
[1] = Whole body fatty acids by GC-FID, balance study; format: in vivo, rat; conditions: 15 wk diet
Description: Carcasses were thawed overnight in a refrigerator at 3°C, cut into pieces, and passed through a #12 hand grinder. After the whole body had passed through the grinder once, the homogenate was mixed together by hand and passed at least one more time through the grinder until the mixture was sufficiently homogeneous. Due to the small size of the pups all of the 21-day-old pup bodies were passed through the grinder together.
A portion of the whole body homogenate was weighed and further homogenized (done in duplicate for each 18-week-old rat and the baseline homogenate) using a Polytron benchtop homogenizer (Brinkman Instruments, Toronto, ON, Canada) in a mixture of chloroform:methanol:0.88%KCl (2:1:0.8 by volume) ([28]). The mixture was centrifuged at 500 g for 10 min, and the chloroform layer was extracted. New chloroform was added to the remaining aqueous phase, the mixture was once again centrifuged, and the chloroform layer was extracted and added to the previously extracted chloroform layer. This total lipid extract (TLE) was evaporated under N2, reconstituted in a known volume of chloroform, and stored under N2 at −80°C until further analysis.
A known amount of heptadecanoic acid (17:0; Nu-Check Prep, Elysian, MN) was added to the TLE. Samples were transmethylated using 14% boron trifluoride in methanol at 100°C for 1 h. Fatty acid methyl esters (FAMEs) were extracted with hexane and quantified using GC-FID. FAMEs were analyzed using a Varian-430 gas chromatograph (Varian, Lake Forest, CA) equipped with a Varian FactorFour capillary column (VF-23ms; 30 m × 0.25 mm interior diameter × 0.25 μm film thickness) and a FID. Samples were injected in splitless mode. The injector and detector ports were set at 250°C. […] The carrier gas was helium, set to a constant flow rate of 0.7 ml/min. Peaks were identified by retention times of authentic FAME standards (Nu-Chek Prep). The concentration of each fatty acid was calculated by comparison with the internal standard (17:0) ([29]). The concentrations were expressed on a per gram basis then multiplied by total weight of the tissue to determine the total amount of each fatty acid in the tissue.

[2] = rats; cited from earlier work

Question: For `CC/C=C\C/C=C\C/C=C\CCCCCCCC(=O)O` [ALA, α-linolenic acid], which “Whole body fatty acids: 12:0” value [1] is on record?
Answer: Its value is 23532 µmol.

Question: And the “Whole body fatty acids: 14:0” value [1]?
Answer: Its value is 17606 µmol.

Question: And the “Whole body fatty acids: 14:1n-7” value [1]?
Answer: Its value is 1331 µmol.

Question: What about the “Whole body fatty acids: 16:0” value [1] of the same compound?
Answer: Its value is 44604 µmol.

Question: And the “Whole body fatty acids: 16:1n-7” value [1]?
Answer: Its value is 16111 µmol.

Question: And the “Whole body fatty acids: 18:0” value [1]?
Answer: Its value is 6101 µmol.

Question: And the “Whole body fatty acids: 18:1n-7” value [1]?
Answer: Its value is 7553 µmol.

Question: What about the “Whole body fatty acids: 18:1n-9” value [1] of the same compound?
Answer: Its value is 38781 µmol.

Question: And the “Whole body fatty acids: 18:2n-6” value [1]?
Answer: The value was 29104 µmol.

Question: What about the “Whole body fatty acids: 18:3n-3” value [1] of the same compound?
Answer: The value was 1557 µmol.

Question: What about the “Whole body fatty acids: 18:3n-6” value [1] of the same compound?
Answer: Its value is 67 µmol.

Question: What about the “Whole body fatty acids: 20:1n-9” value [1] of the same compound?
Answer: The value was 189 µmol.

Question: What about the “Whole body fatty acids: 20:2” value [1] of the same compound?
Answer: Its value is 194 µmol.

Question: What about the “Whole body fatty acids: 20:3n-3” value [1] of the same compound?
Answer: The value was 137 µmol.

Question: And the “Whole body fatty acids: 22:4n-6” value [1]?
Answer: The value was 155 µmol.

Question: And the “Whole body fatty acids: 22:5n-3” value [1]?
Answer: Its value is 101 µmol.

Question: And the “Whole body fatty acids: 22:5n-6” value [1]?
Answer: The value was 124 µmol.

Question: What about the “Whole body fatty acids: ARA (20:4n-6)” value [1] of the same compound?
Answer: Its value is 1954 µmol.

Question: And the “Whole body fatty acids: DHA (22:6n-3)” value [1]?
Answer: Its value is 481 µmol.

Question: And the “Whole body fatty acids: EPA (20:5n-3)” value [1]?
Answer: The value was 76 µmol.

Question: What about the “DHA synthesis rate from ALA (steady-state infusion)” value [2] of the same compound?
Answer: Its value is 9.8 µmol/day.
